Assay results: US20070142457A1, “Crystalline forms of docetaxel and processes for their preparation” (priority 2005, published 2007)

Assay: solubility compared with docetaxel trihydrate
Assay type: physicochemical
Conditions: relative to docetaxel trihydrate; statement in words, no method or figures given

Q: For CC(=O)O[C@@]12CO[C@@H]1C[C@H](O)[C@@]1(C)C(=O)[C@H](O)C3=C(C)[C@@H](OC(=O)[C@H](O)[C@@H](NC(=O)OC(C)(C)C)c4ccccc4)C[C@@](O)([C@@H](OC(=O)c4ccccc4)[C@H]21)C3(C)C [docetaxel polymorph of the invention, docetaxel], which solubility is on record?
A: greater solubility than docetaxel trihydrate
